Article PMC4979471 (Cell Death Discovery, 2015)
Like-named read-outs stand apart in the source and are kept apart here.

Tests used:
Experiment in all cases: Kinase selectivity, P33-radiolabeled assay
Format in all cases: biochemical
Conditions in all cases: 10 μM ATP
ALK4/ACVR1B = target: T1, ALK4/ACVR1B (Homo sapiens, UniProt P36896)
T1 construct: purchased Reaction Biology Corp
T1 sequence (P36896 24-505): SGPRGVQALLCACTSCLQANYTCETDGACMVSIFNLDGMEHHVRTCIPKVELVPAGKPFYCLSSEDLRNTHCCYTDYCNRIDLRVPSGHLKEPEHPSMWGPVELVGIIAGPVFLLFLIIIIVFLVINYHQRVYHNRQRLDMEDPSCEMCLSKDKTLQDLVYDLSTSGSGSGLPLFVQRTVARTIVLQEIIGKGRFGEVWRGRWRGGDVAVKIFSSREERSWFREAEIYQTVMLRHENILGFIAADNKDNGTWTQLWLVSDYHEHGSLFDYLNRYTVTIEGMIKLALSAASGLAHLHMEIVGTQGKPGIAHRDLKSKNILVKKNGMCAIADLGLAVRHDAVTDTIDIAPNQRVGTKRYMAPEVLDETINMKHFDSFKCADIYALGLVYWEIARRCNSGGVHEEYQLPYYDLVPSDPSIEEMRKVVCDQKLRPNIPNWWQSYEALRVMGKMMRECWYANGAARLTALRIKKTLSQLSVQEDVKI
Method in brief: (§1)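 Percent residual kinase activity versus DMSO is reported. Conditions: compound at 10 μM, ATP at 10 μM, n = 2.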

EPHB4 = target: T2, EPHB4 (Homo sapiens, UniProt P54760)
T2 construct: purchased Reaction Biology Corp
T2 sequence (P54760 16-987): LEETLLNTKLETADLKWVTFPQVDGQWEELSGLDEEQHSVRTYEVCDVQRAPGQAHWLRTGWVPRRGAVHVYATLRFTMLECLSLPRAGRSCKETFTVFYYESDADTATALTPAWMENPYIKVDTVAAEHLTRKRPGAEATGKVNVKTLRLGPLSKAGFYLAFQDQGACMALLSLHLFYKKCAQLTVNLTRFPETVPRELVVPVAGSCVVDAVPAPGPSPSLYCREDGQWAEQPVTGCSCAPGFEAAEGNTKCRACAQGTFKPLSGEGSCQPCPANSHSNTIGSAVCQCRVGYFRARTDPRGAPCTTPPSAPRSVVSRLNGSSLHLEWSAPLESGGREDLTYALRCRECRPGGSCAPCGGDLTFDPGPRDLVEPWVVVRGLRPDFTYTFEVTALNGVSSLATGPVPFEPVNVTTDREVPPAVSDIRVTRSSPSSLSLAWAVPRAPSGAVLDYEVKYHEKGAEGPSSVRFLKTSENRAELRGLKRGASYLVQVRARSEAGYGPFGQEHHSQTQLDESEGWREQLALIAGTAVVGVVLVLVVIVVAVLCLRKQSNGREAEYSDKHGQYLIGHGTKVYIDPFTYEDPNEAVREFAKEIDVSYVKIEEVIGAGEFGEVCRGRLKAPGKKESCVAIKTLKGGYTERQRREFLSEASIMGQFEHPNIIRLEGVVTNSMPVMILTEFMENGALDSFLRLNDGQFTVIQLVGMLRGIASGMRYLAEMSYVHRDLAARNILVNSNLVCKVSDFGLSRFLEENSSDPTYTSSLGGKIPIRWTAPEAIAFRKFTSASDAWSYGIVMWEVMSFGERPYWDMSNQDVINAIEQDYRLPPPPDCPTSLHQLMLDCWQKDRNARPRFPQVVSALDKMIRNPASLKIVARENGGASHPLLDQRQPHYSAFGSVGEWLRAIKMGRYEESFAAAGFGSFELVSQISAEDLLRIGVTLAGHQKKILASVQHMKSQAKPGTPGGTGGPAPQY
Method in brief: as §1

FLT4/VEGFR3 = target: T3, FLT4/VEGFR3 (Homo sapiens, UniProt P35916)
T3 construct: purchased Reaction Biology Corp
Method in brief: as §1

HPK1/MAP4K1 = target: T4, HPK1/MAP4K1 (Homo sapiens, UniProt Q92918)
T4 construct: purchased Reaction Biology Corp
Method in brief: as §1

MEK3 = target: T5, MEK3 (Homo sapiens, UniProt P46734)
T5 construct: purchased Reaction Biology Corp
T5 sequence (P46734 1-347): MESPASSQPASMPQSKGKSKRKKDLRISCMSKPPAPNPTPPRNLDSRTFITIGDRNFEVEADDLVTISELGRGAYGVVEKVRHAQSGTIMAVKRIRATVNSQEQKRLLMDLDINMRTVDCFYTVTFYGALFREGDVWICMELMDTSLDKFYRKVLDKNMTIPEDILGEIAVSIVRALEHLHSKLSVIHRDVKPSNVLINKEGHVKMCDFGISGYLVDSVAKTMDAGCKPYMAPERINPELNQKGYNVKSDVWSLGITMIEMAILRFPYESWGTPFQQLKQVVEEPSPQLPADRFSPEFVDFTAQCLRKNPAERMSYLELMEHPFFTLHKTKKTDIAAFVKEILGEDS
Method in brief: as §1

NIK/MAP3K14 = target: T6, NIK/MAP3K14 (Homo sapiens, UniProt Q99558)
T6 construct: purchased Reaction Biology Corp
Method in brief: as §1

PIM1 = target: T7, PIM1 (Homo sapiens, UniProt P11309)
T7 construct: purchased Reaction Biology Corp
Method in brief: as §1

ROCK2 = target: T8, ROCK2 (Homo sapiens, UniProt O75116)
T8 construct: purchased Reaction Biology Corp
Method in brief: as §1

SIK1 = target: T9, SIK1 (Homo sapiens, UniProt P57059)
T9 construct: purchased Reaction Biology Corp
Method in brief: as §1

TESK1 = target: T10, TESK1 (Homo sapiens, UniProt Q15569)
T10 construct: purchased Reaction Biology Corp
Method in brief: as §1

VRK2 = target: T11, VRK2 (Homo sapiens, UniProt Q86Y07)
T11 construct: purchased Reaction Biology Corp
Method in brief: as §1

WNK2 = target: T12, WNK2 (Homo sapiens, UniProt Q9Y3S1)
T12 construct: purchased Reaction Biology Corp
Method in brief: as §1

[1] = read-out: % Enzyme Activity (relative to DMSO controls) AVG
[2] = read-out: % Enzyme Activity (relative to DMSO controls) Data 1
[3] = read-out: % Enzyme Activity (relative to DMSO controls) Data 2

T9 sequence (P57059 whole entry): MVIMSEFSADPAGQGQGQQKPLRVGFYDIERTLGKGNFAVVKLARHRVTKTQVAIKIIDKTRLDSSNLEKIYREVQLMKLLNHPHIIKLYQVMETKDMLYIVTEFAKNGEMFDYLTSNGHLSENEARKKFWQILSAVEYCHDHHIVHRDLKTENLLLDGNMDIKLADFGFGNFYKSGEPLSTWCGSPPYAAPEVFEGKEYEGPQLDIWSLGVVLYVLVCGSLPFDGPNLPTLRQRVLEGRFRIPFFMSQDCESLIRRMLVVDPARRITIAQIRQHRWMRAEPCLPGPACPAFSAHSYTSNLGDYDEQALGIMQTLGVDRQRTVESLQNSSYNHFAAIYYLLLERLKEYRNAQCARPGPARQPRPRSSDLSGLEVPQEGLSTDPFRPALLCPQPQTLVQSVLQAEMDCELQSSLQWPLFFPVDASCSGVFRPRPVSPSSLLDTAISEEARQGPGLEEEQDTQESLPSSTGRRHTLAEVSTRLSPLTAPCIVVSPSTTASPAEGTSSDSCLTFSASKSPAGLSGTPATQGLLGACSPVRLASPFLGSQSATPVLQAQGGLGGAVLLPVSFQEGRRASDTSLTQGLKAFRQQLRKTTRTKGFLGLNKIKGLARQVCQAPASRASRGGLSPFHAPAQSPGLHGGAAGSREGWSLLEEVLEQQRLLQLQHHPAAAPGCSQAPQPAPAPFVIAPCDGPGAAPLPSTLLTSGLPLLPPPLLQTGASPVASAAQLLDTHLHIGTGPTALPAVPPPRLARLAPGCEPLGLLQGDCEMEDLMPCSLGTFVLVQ
T7 sequence (P11309 whole entry): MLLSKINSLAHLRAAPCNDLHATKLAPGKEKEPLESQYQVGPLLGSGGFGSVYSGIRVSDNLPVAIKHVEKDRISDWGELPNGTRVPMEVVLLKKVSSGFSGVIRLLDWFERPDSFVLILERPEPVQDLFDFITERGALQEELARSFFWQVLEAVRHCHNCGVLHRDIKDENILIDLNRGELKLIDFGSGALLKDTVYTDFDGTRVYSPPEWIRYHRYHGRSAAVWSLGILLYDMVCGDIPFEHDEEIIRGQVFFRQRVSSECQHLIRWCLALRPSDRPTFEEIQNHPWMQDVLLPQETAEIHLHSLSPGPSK
T12 sequence (Q9Y3S1 whole entry): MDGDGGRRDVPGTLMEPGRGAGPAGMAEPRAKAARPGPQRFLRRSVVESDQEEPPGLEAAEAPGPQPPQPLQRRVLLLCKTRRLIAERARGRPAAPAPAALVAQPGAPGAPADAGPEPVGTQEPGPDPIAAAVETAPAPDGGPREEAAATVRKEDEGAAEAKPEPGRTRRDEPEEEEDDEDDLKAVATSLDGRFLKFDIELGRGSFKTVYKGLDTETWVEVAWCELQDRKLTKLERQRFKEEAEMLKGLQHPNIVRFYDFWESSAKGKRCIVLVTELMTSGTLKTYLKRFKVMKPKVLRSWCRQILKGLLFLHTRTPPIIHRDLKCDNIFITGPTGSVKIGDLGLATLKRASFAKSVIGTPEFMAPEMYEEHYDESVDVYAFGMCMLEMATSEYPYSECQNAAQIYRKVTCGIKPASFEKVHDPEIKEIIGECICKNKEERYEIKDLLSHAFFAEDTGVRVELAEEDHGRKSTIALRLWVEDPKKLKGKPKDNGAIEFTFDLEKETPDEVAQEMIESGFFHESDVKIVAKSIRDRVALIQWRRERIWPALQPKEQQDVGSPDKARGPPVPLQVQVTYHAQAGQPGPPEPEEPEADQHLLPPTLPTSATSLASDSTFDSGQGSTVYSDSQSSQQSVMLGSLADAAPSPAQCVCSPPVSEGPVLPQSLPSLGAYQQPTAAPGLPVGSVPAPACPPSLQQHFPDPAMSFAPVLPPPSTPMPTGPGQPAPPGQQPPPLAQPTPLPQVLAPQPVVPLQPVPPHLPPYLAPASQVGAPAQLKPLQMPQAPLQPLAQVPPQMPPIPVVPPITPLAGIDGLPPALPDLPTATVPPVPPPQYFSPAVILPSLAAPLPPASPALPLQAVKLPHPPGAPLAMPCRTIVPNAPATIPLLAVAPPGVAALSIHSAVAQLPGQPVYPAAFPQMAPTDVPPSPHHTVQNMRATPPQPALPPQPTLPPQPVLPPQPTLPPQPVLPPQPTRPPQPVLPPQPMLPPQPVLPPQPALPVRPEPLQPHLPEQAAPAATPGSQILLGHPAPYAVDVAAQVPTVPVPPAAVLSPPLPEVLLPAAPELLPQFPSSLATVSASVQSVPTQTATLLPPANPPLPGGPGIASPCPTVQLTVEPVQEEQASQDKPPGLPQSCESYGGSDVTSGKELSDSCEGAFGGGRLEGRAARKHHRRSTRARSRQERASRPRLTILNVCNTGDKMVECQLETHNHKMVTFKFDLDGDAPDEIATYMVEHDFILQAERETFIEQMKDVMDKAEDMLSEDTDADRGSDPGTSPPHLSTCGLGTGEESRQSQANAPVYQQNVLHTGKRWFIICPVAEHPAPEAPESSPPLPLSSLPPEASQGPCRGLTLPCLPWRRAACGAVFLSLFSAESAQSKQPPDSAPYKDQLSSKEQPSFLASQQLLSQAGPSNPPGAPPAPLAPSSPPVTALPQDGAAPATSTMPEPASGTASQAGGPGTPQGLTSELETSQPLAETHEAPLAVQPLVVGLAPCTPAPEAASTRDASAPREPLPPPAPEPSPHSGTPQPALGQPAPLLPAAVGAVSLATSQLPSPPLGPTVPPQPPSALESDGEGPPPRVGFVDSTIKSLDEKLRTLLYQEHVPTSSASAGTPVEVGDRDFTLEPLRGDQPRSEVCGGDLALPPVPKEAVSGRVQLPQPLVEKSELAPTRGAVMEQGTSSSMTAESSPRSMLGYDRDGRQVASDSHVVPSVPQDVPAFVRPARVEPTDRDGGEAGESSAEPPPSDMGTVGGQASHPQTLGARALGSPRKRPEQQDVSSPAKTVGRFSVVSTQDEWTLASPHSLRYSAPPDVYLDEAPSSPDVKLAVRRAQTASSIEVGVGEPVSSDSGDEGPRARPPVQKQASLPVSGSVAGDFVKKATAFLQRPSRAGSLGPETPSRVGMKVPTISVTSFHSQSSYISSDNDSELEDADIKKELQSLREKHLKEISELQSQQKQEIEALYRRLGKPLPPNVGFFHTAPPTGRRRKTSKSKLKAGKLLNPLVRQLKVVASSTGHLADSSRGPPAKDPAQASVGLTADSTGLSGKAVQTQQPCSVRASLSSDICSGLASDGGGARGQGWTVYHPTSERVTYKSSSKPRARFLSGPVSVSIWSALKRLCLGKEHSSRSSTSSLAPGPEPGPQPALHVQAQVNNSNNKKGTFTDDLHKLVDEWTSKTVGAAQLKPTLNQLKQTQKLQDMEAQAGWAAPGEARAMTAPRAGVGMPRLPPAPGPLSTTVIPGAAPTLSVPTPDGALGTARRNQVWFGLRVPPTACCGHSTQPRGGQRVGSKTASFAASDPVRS
T4 sequence (Q92918 whole entry): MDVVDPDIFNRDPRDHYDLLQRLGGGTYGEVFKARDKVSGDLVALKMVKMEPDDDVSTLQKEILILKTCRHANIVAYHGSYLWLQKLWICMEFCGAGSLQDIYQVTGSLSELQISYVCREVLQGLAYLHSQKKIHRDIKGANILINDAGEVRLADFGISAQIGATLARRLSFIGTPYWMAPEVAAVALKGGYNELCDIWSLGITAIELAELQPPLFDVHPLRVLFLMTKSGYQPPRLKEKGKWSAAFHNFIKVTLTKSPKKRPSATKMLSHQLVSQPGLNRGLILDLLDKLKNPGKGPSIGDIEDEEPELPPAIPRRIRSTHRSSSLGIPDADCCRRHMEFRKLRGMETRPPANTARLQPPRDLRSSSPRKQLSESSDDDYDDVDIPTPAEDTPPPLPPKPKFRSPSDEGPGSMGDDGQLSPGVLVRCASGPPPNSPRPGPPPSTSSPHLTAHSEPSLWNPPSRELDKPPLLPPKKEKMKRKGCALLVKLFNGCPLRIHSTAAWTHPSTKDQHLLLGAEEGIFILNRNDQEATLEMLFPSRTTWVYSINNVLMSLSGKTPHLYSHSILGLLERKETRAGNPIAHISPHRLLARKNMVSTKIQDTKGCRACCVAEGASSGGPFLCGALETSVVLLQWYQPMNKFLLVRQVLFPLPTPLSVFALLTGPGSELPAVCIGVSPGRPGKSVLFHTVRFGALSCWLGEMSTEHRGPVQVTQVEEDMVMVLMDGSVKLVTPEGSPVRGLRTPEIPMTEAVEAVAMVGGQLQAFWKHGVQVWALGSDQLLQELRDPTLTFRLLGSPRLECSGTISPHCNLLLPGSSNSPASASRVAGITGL
T11 sequence (Q86Y07 whole entry): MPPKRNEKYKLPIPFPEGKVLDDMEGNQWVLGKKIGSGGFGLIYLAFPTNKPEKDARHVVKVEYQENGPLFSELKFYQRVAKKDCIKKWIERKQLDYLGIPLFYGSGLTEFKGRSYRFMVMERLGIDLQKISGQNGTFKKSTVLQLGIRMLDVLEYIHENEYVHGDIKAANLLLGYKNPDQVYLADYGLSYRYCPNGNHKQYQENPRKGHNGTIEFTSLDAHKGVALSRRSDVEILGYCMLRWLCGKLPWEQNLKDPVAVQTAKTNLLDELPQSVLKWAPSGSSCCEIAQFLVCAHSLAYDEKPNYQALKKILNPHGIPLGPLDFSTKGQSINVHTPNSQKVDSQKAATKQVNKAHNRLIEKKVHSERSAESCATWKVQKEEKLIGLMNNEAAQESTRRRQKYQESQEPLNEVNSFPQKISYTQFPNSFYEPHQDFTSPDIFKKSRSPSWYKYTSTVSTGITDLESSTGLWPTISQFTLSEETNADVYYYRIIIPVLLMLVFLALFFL

CC(C)(C)C(=O)N1N=CC[C@H]1c1ccccc1 [GSK′963]
remaining activity at 10 µM (ALK4/ACVR1B; [1]): 103% | remaining activity at 10 µM (ALK4/ACVR1B; [2]): 104% | remaining activity at 10 µM (ALK4/ACVR1B; [3]): 102% | remaining activity at 10 µM (EPHB4; [1]): 101% | remaining activity at 10 µM (EPHB4; [2]): 100% | remaining activity at 10 µM (EPHB4; [3]): 101% | remaining activity at 10 µM (FLT4/VEGFR3; [1]): 103% | remaining activity at 10 µM (FLT4/VEGFR3; [2]): 105% | remaining activity at 10 µM (FLT4/VEGFR3; [3]): 102% | remaining activity at 10 µM (HPK1/MAP4K1; [1]): 100% | remaining activity at 10 µM (HPK1/MAP4K1; [2]): 100% | remaining activity at 10 µM (HPK1/MAP4K1; [3]): 101% | remaining activity at 10 µM (MEK3; [1]): 108% | remaining activity at 10 µM (MEK3; [2]): 103% | remaining activity at 10 µM (MEK3; [3]): 113% | remaining activity at 10 µM (NIK/MAP3K14; [1]): 98.2% | remaining activity at 10 µM (NIK/MAP3K14; [2]): 93.4% | remaining activity at 10 µM (NIK/MAP3K14; [3]): 103% | remaining activity at 10 µM (PIM1; [1]): 109% | remaining activity at 10 µM (PIM1; [2]): 113% | remaining activity at 10 µM (PIM1; [3]): 106% | remaining activity at 10 µM (ROCK2; [1]): 98% | remaining activity at 10 µM (ROCK2; [2]): 99% | remaining activity at 10 µM (ROCK2; [3]): 97.1% | remaining activity at 10 µM (SIK1; [1]): 113% | remaining activity at 10 µM (SIK1; [2]): 113% | remaining activity at 10 µM (SIK1; [3]): 113% | remaining activity at 10 µM (TESK1; [1]): 116% | remaining activity at 10 µM (TESK1; [2]): 112% | remaining activity at 10 µM (TESK1; [3]): 120% | remaining activity at 10 µM (VRK2; [1]): 107% | remaining activity at 10 µM (VRK2; [2]): 107% | remaining activity at 10 µM (VRK2; [3]): 108% | remaining activity at 10 µM (WNK2; [1]): 97.4% | remaining activity at 10 µM (WNK2; [2]): 99.3% | remaining activity at 10 µM (WNK2; [3]): 95.5%
